Read-outs that look alike come from different tables or passages of the source.
Columns and labels:
[1] = tested on: Leptosphaeria nodorum (LEPTNO); assay: In vitro fungitoxicity of hydrazones with and without copper towards Leptosphaeria nodorum (Example 26); type: cell-based; conditions: 72 h at 25° C.; for inhibition of growth at 0.05 µg/mL: Parastagonospora nodorum, 72 h, copper-minus medium, read-out: LEPTNO % Inhn. Minus Copper Observed
Phytophthora infestans = type: in vivo, Phytophthora infestans on tomato; conditions: applied 24 h before inoculation, assessed 7 days after inoculation
[2] = test compound Concn. 0.05 μg/mL
[3] = copper-plus medium (CuCl2 10 μM), test compound Concn. 0.05 μg/mL
[4] = hydrazone 50 ppm with 50 μM CuCl2.2H2O, tomato late blight
[5] = compound 0.05 μg/mL, copper-plus medium (CuCl2.2H2O)
[6] = hydrazone 50 ppm + 50 μM CuCl2.2H2O, tomato

Compound | inhibition of growth at 0.05 µg/mL [1, 2] | LEPTNO % Inhn. Plus Copper Observed [1, 3] | TLB % Control (Phytophthora infestans; [4]) | melting point | inhibition of growth at 0.05 µg/mL ([1]; compound 0.05 μg/mL) | LEPTNO % Inhn. Plus Copper Observed [1, 5] | TLB % Control (Phytophthora infestans; [6])
O=C(N/N=C/c1cc(C(F)(F)F)cc(C(F)(F)F)c1O)c1ccccc1O [Example 340] | 18% | 96.2% | 95.0% | 231 to 235 °C |  |  | 
C/C(=N\NC(=O)c1cccc(C)c1)c1cc(Cl)ccc1O [Example 506] | 2.7% | 97.5% | 44.0% | 222 to 228 °C |  |  | 
O=C(N/N=C/c1c(C(F)(F)F)ccc(Cl)c1O)c1cccc(Cl)c1 [Example 451] | 4.6% | 100.0% | 100.0% | 242 to 245 °C |  |  | 
C/C(=N\NC(=O)c1ccc(C)cc1)c1cc(F)cc(F)c1O [Example 575] | 0% | 98.1% | 100.0% | 220 to 222 °C |  |  | 
C/C(=N\NC(=O)c1cccc(Cl)c1O)c1cc(Cl)cc(Cl)c1O [Example 481] | 10.3% | 97.8% | 76.0% | 260 to 262 °C |  |  | 
C/C(=N\NC(=O)c1ccccc1Br)c1cc(F)cc(F)c1O [Example 582] | 12.2% | 97.8% | 94.0% | 190 to 195 °C |  |  | 
C/C(=N\NC(=O)c1cccc(Cl)c1)c1cc(C(F)(F)F)ccc1O [Example 532] | 4.9% | 91.4% | 56.0% | 241 to 245 °C |  |  | 
O=C(N/N=C/c1cc(C(F)(F)F)cc(Cl)c1O)c1ccc(F)cc1 [Example 324] | 2.3% | 96.3% | 98.0% | 200 to 202 °C |  |  | 
COc1ccc(C(=O)N/N=C(\C)c2cc(C(F)(F)F)ccc2O)cc1 [Example 534] | 5.1% | 95.7% | 61.0% | 228 to 231 °C |  |  | 
O=C(N/N=C/c1c(O)cccc1Cl)c1ccc(F)cc1 [Example 401] | 0% | 94.8% | 98.0% | 266 to 268 °C |  |  | 
C/C(=N\NC(=O)c1ccccc1C)c1ccc(Cl)cc1O [Example 252] |  |  |  | 214 to 215 °C | 7.8% | 98.4% | 28.0%
CCOc1ccc(C(=O)N/N=C/c2cc(Cl)cc(Cl)c2O)cc1 [Example 97] |  |  |  | 279 to 281 °C | 18.2% | 98.3% | 76.3%
O=C(N/N=C/c1c(C(F)(F)F)ccc(Cl)c1O)c1ccccc1 [Example 319] | 18.1% | 96.6% | 78.0% | 216 to 218 °C |  |  | 
COc1ccc(C(=O)N/N=C(\C)c2cccc(OC)c2O)cc1 [Example 464] | 6.7% | 94.8% | 93.0% | 140 to 141 °C |  |  | 
C/C(=N\NC(=O)c1ccccc1O)c1cc(Cl)ccc1O [Example 515] | 0% | 97.6% | 47.0% | 298 to 318 °C |  |  | 
COc1ccc(/C(C)=N/NC(=O)c2ccccc2O)c(O)c1OC [Example 562] | 1.4% | 97.3% | 91.0% | 279 to 297 °C |  |  | 
O=C(N/N=C/c1cc(Cl)ccc1O)c1cccc([N+](=O)[O-])c1 [Example 10] |  |  |  | 224 to 227 °C | 6.9% | 97.2% | 96.0%
C/C(=N\NC(=O)c1ccccc1Cl)c1cc(Cl)ccc1O [Example 508] | 9.4% | 97.1% | 92.0% | 210 to 217 °C |  |  | 
O=C(N/N=C/c1ccc(C(F)(F)F)cc1O)c1ccccc1 [Example 294] |  |  |  | 215 to 217 °C | 1.7% | 94.2% | 72.9%
O=C(N/N=C/c1ccc(Cl)cc1O)c1ccc([N+](=O)[O-])cc1 [Example 394] | 8% | 95.9% | 71.0% | 278 to 281 °C |  |  | 

Compound | inhibition of growth at 0.05 µg/mL [1, 2] | LEPTNO % Inhn. Plus Copper Observed [1, 3] | TLB % Control (Phytophthora infestans; [4]) | melting point | inhibition of growth at 0.05 µg/mL ([1]; compound 0.05 μg/mL) | LEPTNO % Inhn. Plus Copper Observed [1, 5] | TLB % Control (Phytophthora infestans; [6])
C/C(=N\NC(=O)c1ccccc1)c1cc(C(F)(F)F)ccc1O [Example 527] | 7.6% | 97.6% | 78.0% | 226 to 229 °C |  |  | 
C/C(=N\NC(=O)c1cc2ccccc2cc1O)c1cc(Cl)cc(Cl)c1O [Example 564] | 17.4% | 94.2% | 1.3% | 312 to 315 °C |  |  | 
C/C(=N\NC(=O)c1ccccc1Cl)c1ccc(Cl)cc1O [Example 255] |  |  |  | 183 to 184 °C | 3.6% | 98.2% | 28.0%
C/C(=N\NC(=O)c1ccccc1Br)c1cc(C(F)(F)F)ccc1O [Example 537] | 12.2% | 96.2% | 90.0% | 192 to 200 °C |  |  | 
C/C(=N\NC(=O)c1cccc(Cl)c1)c1cc(C)ccc1O [Example 316] | 4.5% | 97.1% | 14.0% | 231 to 241 °C |  |  | 
O=C(N/N=C/c1cc(C(F)(F)F)cc(C(F)(F)F)c1O)c1ccc([N+](=O)[O-])cc1 [Example 339] | 1.5% | 95.4% | 100.0% | 244 to 247 °C |  |  | 
C/C(=N\NC(=O)c1ccc(Cl)cc1)c1cc(Br)cc(Br)c1O [Example 545] | 19.6% | 97.9% | 95.0% | 255 to 258 °C |  |  | 
CSc1cc(Br)c(O)c(/C=N/NC(=O)c2ccccc2)c1 [Example 298] | 0.7% | 95.0% | 74.6% | 207 to 209 °C |  |  | 
C/C(=N\NC(=O)c1ccccc1Br)c1cc(Cl)cc(Cl)c1O [Example 57] |  |  |  | 220 to 222 °C | 0% | 97.3% | 89.5%
C/C(=N\NC(=O)c1cccc(C)c1O)c1cc(Cl)cc(Cl)c1O [Example 565] | 12.2% | 97.4% | 98.0% | 278 to 279 °C |  |  | 
COc1cc(O)c(/C(C)=N/NC(=O)c2cccc(C)c2)c(OC)c1 [Example 585] | 6.3% | 86.3% | 62.0% | 207 to 209 °C |  |  | 
Cc1ccc(C(=O)N/N=C/c2cc(C(F)(F)F)cc(C(F)(F)F)c2O)cc1 [Example 333] | 16.2% | 93.2% | 85.0% | 274 to 277 °C |  |  | 
COc1cccc(C(=O)N/N=C/c2cc(Cl)cc(Br)c2O)c1C [Example 132] |  |  |  | 187 to 189 °C | 9.1% | 97.7% | 65.5%
COc1cccc(/C(C)=N/NC(=O)c2ccc(Br)cc2)c1O [Example 465] | 1.7% | 96.5% | 93.0% | 176 to 177 °C |  |  | 
C/C(=N\NC(=O)c1ccc(Br)cc1)c1ccccc1O [Example 458] | 3.7% | 96.6% | 46.0% | 218 to 221 °C |  |  | 
C/C(=N\NC(=O)c1ccc(C)cc1)c1cccc([N+](=O)[O-])c1O [Example 271] |  |  |  | 242 to 249 °C | 6.9% | 98.9% | 61.0%
COc1ccc(/C(C)=N/NC(=O)c2ccccc2)c(O)c1OC [Example 551] | 1.7% | 96.0% | 90.0% | 154 to 155 °C |  |  | 
O=C(N/N=C/c1c(O)cccc1C(F)(F)F)c1ccccc1 [Example 297] | 0% | 96.4% | 69.5% | 228 to 230 °C |  |  | 
O=C(N/N=C/c1cc(Cl)cc(Br)c1O)c1ccc([N+](=O)[O-])cc1 [Example 417] | 10.7% | 98.2% | 100.0% | 237 to 250 °C |  |  | 
C/C(=N\NC(=O)c1ccccc1)c1cccc([N+](=O)[O-])c1O [Example 268] |  |  |  | 215 to 224 °C | 1.2% | 98.7% | 31.0%

Source: patent US20120010075A1 (priority 2009, published 2012)
